Inconclusive results and toxic doses are left out. Rule as the data show it: active = T/C of 150% or more; inactive = T/C below 125%.
Test system: L1210 leukemia ip in BDF1 mice, survival T/C
Test: NCI In Vivo Anticancer Drug Screen. Data for tumor model L1210 Leukemia (intraperitoneal) in B6D2F1 (BDF1) mice
Conditions: endpoint: mean survival time, higher = longer survival
Method in brief: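 Transplantable tumor model; survival measured in treated vs vehicle control mice. Value = treated/control.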

[1] = dose: 100.0 mg/kg/injection, schedule: Q04DX003 (ip), vehicle: saline with Tween-80
[2] = dose: 200.0 mg/kg/injection, schedule: Q04DX003 (ip), vehicle: saline with Tween-80
[3] = dose: 400.0 mg/kg/injection, schedule: Q04DX003 (ip), vehicle: saline with Tween-80
[4] = dose: 100.0 mg/kg/injection, schedule: Q04DX003 (ip), vehicle: Klucel (hydroxypropylcellulose) (HPC)
[5] = dose: 200.0 mg/kg/injection, schedule: Q04DX003 (ip), vehicle: Klucel (hydroxypropylcellulose) (HPC)
[6] = dose: 400.0 mg/kg/injection, schedule: Q04DX003 (ip), vehicle: Klucel (hydroxypropylcellulose) (HPC)
[7] = dose: 100.0 mg/kg/injection, schedule: Q01DX009 (ip), vehicle: Klucel (hydroxypropylcellulose) (HPC)
[8] = dose: 200.0 mg/kg/injection, schedule: Q01DX009 (ip), vehicle: Klucel (hydroxypropylcellulose) (HPC)
[9] = dose: 400.0 mg/kg/injection, schedule: Q01DX009 (ip), vehicle: Klucel (hydroxypropylcellulose) (HPC)
[10] = dose: 50.0 mg/kg/injection, schedule: Q01DX001 (ip), vehicle: saline
[11] = dose: 100.0 mg/kg/injection, schedule: Q01DX001 (ip), vehicle: saline
[12] = dose: 200.0 mg/kg/injection, schedule: Q01DX001 (ip), vehicle: saline
[13] = dose: 400.0 mg/kg/injection, schedule: Q01DX001 (ip), vehicle: saline
[14] = dose: 100.0 mg/kg/injection, schedule: Q01DX009 (ip), vehicle: saline
[15] = dose: 200.0 mg/kg/injection, schedule: Q01DX009 (ip), vehicle: saline
[16] = dose: 400.0 mg/kg/injection, schedule: Q01DX009 (ip), vehicle: saline

Measured: T/C

CCOC(=O)n1c(=O)[nH]c2ccccc21
inactive: dose: 87.5 mg/kg/injection, schedule: Q04DX003 (ip), vehicle: carboxymethylcellulose (CMC) 97 % of control | dose: 175.0 mg/kg/injection, schedule: Q04DX003 (ip), vehicle: carboxymethylcellulose (CMC) 91 % of control | dose: 350.0 mg/kg/injection, schedule: Q04DX003 (ip), vehicle: carboxymethylcellulose (CMC) 101 % of control

NC(=O)Cn1cnc2cncnc21
inactive: [1] 103 % of control | [2] 111 % of control | [3] 99 % of control

O=C(NCCCCCCNC(=O)Nc1ccc(C2=NCCN2)cc1)Nc1ccc(C2=NCCN2)cc1
inactive: dose: 62.0 mg/kg/injection, schedule: Q01DX Z (ip), vehicle: carboxymethylcellulose (CMC) 106 % of control | dose: 125.0 mg/kg/injection, schedule: Q01DX Z (ip), vehicle: carboxymethylcellulose (CMC) 92 % of control | dose: 250.0 mg/kg/injection, schedule: Q01DX Z (ip), vehicle: carboxymethylcellulose (CMC) 109 % of control | dose: 500.0 mg/kg/injection, schedule: Q01DX Z (ip), vehicle: carboxymethylcellulose (CMC) 102 % of control

CC(=O)CC(=O)Nc1ccc(C)cc1C
inactive: [4] 102 % of control | [5] 98 % of control | [6] 115 % of control

c1ccc2c(c1)CCc1ccccc1CC2
inactive: [7] 93 % of control | [8] 96 % of control | [9] 90 % of control

CC(C)(C)c1cc(Br)c(O)c(C(=O)O)c1
inactive: dose: 200.0 mg/kg/injection, schedule: Q01DX001 (ip), vehicle: carboxymethylcellulose (CMC) 98 % of control

Nc1ccc2cc(S(=O)(=O)O)cc(S(=O)(=O)O)c2c1
inactive: dose: 100.0 mg/kg/injection, schedule: Q04DX002 (ip), vehicle: saline 95 % of control | dose: 200.0 mg/kg/injection, schedule: Q04DX002 (ip), vehicle: saline 102 % of control

Cc1ccc(Cl)cc1N=Cc1ccccc1O
inactive: [1] 94 % of control | [3] 98 % of control

Cc1c(Cl)nc(Cl)nc1Cl
inactive: dose: 8.0 mg/kg/injection, schedule: Q01DX015 (ip), vehicle: carboxymethylcellulose (CMC) 104 % of control | dose: 16.0 mg/kg/injection, schedule: Q01DX015 (ip), vehicle: carboxymethylcellulose (CMC) 98 % of control | dose: 32.0 mg/kg/injection, schedule: Q01DX015 (ip), vehicle: carboxymethylcellulose (CMC) 96 % of control | [10] 101 % of control | dose: 64.0 mg/kg/injection, schedule: Q01DX015 (ip), vehicle: carboxymethylcellulose (CMC) 106 % of control | dose: 75.0 mg/kg/injection, schedule: Q01DX015 (ip), vehicle: carboxymethylcellulose (CMC) 98 % of control | [11] 101 % of control | dose: 150.0 mg/kg/injection, schedule: Q01DX015 (ip), vehicle: carboxymethylcellulose (CMC) 91 % of control | [12] 104 % of control | [13] 104 % of control

CCC(NC(=O)OCc1ccccc1)C(=O)O (stereo not given)
inactive: [1] 98 % of control | [2] 93 % of control | [3] 97 % of control

CCOC(=O)C[n+]1ccccc1
inactive: dose: 50.0 mg/kg/injection, schedule: Q01DX009 (ip), vehicle: saline with Tween-80 98 % of control | dose: 50.0 mg/kg/injection, schedule: Q01DX009 (ip), vehicle: saline 96 % of control | dose: 100.0 mg/kg/injection, schedule: Q01DX009 (ip), vehicle: saline with Tween-80 93 % of control | [14] 102 % of control | dose: 200.0 mg/kg/injection, schedule: Q01DX009 (ip), vehicle: saline with Tween-80 91 % of control

CSc1ncc2c(Cl)nn(C)c2n1
inactive: dose: 37.5 mg/kg/injection, schedule: Q01DX001 (ip), vehicle: Klucel (hydroxypropylcellulose) (HPC) 94 % of control | dose: 75.0 mg/kg/injection, schedule: Q01DX001 (ip), vehicle: Klucel (hydroxypropylcellulose) (HPC) 92 % of control | dose: 150.0 mg/kg/injection, schedule: Q01DX001 (ip), vehicle: Klucel (hydroxypropylcellulose) (HPC) 90 % of control

O=C1Nc2cc(C(F)(F)F)ccc2/C1=C/c1ccc(Cl)cc1
inactive: dose: 75.0 mg/kg/injection, schedule: Q01DX001 (ip), vehicle: saline 92 % of control | dose: 75.0 mg/kg/injection, schedule: Q04DX003 (ip), vehicle: saline 96 % of control | dose: 150.0 mg/kg/injection, schedule: Q01DX001 (ip), vehicle: saline 97 % of control | dose: 150.0 mg/kg/injection, schedule: Q04DX003 (ip), vehicle: saline 100 % of control | dose: 300.0 mg/kg/injection, schedule: Q01DX001 (ip), vehicle: saline 97 % of control | dose: 300.0 mg/kg/injection, schedule: Q04DX003 (ip), vehicle: saline 94 % of control

CCSC(C(O)C(O)C(O)C(O)CO)n1ccc(=O)[nH]c1=O (stereo not given)
inactive: dose: 100.0 mg/kg/injection, schedule: Q01DX001 (ip), vehicle: Klucel (hydroxypropylcellulose) (HPC) 100 % of control | [4] 88 % of control | [1] 103 % of control | dose: 200.0 mg/kg/injection, schedule: Q01DX001 (ip), vehicle: Klucel (hydroxypropylcellulose) (HPC) 100 % of control | [15] 93 % of control | [5] 93 % of control | [2] 94 % of control | dose: 400.0 mg/kg/injection, schedule: Q01DX001 (ip), vehicle: Klucel (hydroxypropylcellulose) (HPC) 102 % of control | [16] 94 % of control | [6] 87 % of control | [3] 92 % of control

CC(C)(C)NC(=O)Oc1ccc(Br)cc1Br
inactive: [14] 104 % of control | dose: 100.0 mg/kg/injection, schedule: Q04DX003 (ip), vehicle: saline 88 % of control | [15] 98 % of control | dose: 200.0 mg/kg/injection, schedule: Q04DX003 (ip), vehicle: saline 92 % of control | [16] 104 % of control | dose: 400.0 mg/kg/injection, schedule: Q04DX003 (ip), vehicle: saline 87 % of control

CCCC(=O)CC(C)=O.CCCC(=O)CC(C)=O.[Cu]
inactive: dose: 5.0 mg/kg/injection, schedule: Q04DX003 (ip), vehicle: Klucel (hydroxypropylcellulose) (HPC) 95 % of control | dose: 6.0 mg/kg/injection, schedule: Q01DX009 (ip), vehicle: Klucel (hydroxypropylcellulose) (HPC) 92 % of control | dose: 10.0 mg/kg/injection, schedule: Q04DX003 (ip), vehicle: Klucel (hydroxypropylcellulose) (HPC) 98 % of control | dose: 12.0 mg/kg/injection, schedule: Q01DX009 (ip), vehicle: Klucel (hydroxypropylcellulose) (HPC) 101 % of control | dose: 20.0 mg/kg/injection, schedule: Q04DX003 (ip), vehicle: Klucel (hydroxypropylcellulose) (HPC) 96 % of control | dose: 40.0 mg/kg/injection, schedule: Q04DX003 (ip), vehicle: Klucel (hydroxypropylcellulose) (HPC) 93 % of control

ClC1CCCCCCCCC1
inactive: [10] 122 % of control | [11] 95 % of control | [13] 92 % of control

c1cc[c]2c(c1)Oc1cccc[c]1[Sn]21[c]2ccccc2Oc2cccc[c]21
inactive: dose: 100.0 mg/kg/injection, schedule: Q01DX001 (ip), vehicle: other 91 % of control | dose: 200.0 mg/kg/injection, schedule: Q01DX001 (ip), vehicle: other 96 % of control | dose: 400.0 mg/kg/injection, schedule: Q01DX001 (ip), vehicle: other 89 % of control

C[C@@H]1CN1C1=CC(=O)C(N2C[C@H]2C)=CC1=O
inactive: dose: 6.25 mg/kg/injection, schedule: Q04DX003 (ip), vehicle: saline with Tween-80 117 % of control | dose: 12.5 mg/kg/injection, schedule: Q04DX003 (ip), vehicle: saline with Tween-80 117 % of control

O=C1C2C3CCC(O3)C2C(=O)N1Cc1ccccc1CBr (stereo not given)
inactive: dose: 100.0 mg/kg/injection, schedule: Q04DX003 (ip), vehicle: carboxymethylcellulose (CMC) 95 % of control | dose: 200.0 mg/kg/injection, schedule: Q04DX003 (ip), vehicle: carboxymethylcellulose (CMC) 98 % of control

Cc1cc(C)n(/N=C/c2ccccc2[N+](=O)[O-])c(=O)c1C#N
inactive: [7] 91 % of control | [4] 102 % of control | [8] 92 % of control | [5] 93 % of control | [9] 92 % of control | [6] 96 % of control

CNC(=O)Oc1ccc(C(=O)OC)cc1
inactive: [11] 93 % of control | [12] 90 % of control | [13] 122 % of control
